Data: patent US11001590B2, “Pyrazolopyrimidine derivatives” (BAYER ANIMAL HEALTH GMBH, priority 2016, dated 2021)

Key:
[1] = log P by HPLC on reversed phase columns (Method L0; [a] acidic, [b] neutral range); conditions: for log P: HPLC on reversed phase columns (Method L0)
Protocol: Calibration was done with straight-chain alkan-2-ones (with 3 to 16 carbon atoms) with known log P values (measurement of log P values using retention times with linear interpolation between successive alkanones). Lambda-max-values were determined using UV-spectra from 200 nm to 400 nm and the peak values of the chromatographic signals.

C. elegans Slo-1a = C. elegans Slo-1a (Caenorhabditis elegans, UniProt Q95V25); assay: In vitro assay 1: C. elegans Slo-1a, action at a recombinant C. elegans CHO cell line (membrane potential measurement); conditions: for pE50: CHO cells expressing C. elegans Slo-1a, voltage sensitive dye, FLIPR Tetra, negative decadic logarithm of EC50
[2] = last column of Table 1, column head not shown

Sequence of C. elegans Slo-1a (Q95V25 whole entry): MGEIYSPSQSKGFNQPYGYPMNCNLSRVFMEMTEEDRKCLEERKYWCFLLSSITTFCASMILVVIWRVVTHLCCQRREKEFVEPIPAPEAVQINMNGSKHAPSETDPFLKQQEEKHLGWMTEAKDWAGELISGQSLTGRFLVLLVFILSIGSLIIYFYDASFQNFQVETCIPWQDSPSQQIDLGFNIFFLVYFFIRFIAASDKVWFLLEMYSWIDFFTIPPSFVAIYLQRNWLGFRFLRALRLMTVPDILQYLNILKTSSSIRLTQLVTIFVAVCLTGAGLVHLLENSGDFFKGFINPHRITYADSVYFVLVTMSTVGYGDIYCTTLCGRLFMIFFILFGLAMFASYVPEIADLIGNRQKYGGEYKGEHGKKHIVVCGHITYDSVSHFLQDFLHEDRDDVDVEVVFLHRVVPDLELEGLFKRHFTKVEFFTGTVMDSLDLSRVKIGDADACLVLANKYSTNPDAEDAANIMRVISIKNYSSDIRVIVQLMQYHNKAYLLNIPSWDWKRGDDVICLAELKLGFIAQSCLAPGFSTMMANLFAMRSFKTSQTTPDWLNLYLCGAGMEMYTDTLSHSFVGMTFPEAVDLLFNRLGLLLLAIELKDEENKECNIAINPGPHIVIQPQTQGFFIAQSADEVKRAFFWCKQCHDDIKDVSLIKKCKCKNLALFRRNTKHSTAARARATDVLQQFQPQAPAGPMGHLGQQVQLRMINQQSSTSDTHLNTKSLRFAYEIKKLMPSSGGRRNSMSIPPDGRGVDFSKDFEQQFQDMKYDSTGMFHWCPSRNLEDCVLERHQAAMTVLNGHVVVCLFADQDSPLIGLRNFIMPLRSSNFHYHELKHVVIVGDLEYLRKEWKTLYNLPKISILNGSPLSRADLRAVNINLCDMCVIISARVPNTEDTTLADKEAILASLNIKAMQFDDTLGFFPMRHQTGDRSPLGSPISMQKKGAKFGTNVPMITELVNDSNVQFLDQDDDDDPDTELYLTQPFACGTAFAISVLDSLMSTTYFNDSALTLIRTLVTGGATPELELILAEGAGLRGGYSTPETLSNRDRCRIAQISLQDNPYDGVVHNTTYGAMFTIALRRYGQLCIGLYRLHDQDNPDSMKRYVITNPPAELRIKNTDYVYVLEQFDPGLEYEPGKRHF

| SMILES | chromatographic logP [1] | EC50 (C. elegans Slo-1a) [nM] | log P [1] | pE50 (C. elegans Slo-1a) | log P [1, 2] |
| --- | --- | --- | --- | --- | --- |
| Cc1nn2c(C(C)C)c(C(=O)N[C@H]3CCc4ccccc43)cnc2c1-c1cncnc1 [Example 296] | 2.99 | 7940 |  |  |  |
| Cc1nn2c(C(C)C)c(C(=O)N[C@H]3CCc4ccccc43)cnc2c1-c1cnn(C)c1 [Example 303] | 3.13 | 794 |  |  |  |
| COCc1c(C(=O)N[C@H]2CCc3ccccc32)cnc2c(-c3cccc(C(F)(F)F)c3)c(C)nn12 [Example 305] | 4.52 | 63.1 |  |  |  |
| CCc1c(C(=O)N[C@H]2CCc3ccccc32)cnc2c(-c3cccc(C(F)(F)F)c3)c(C)nn12 [Example 306] | 4.86 | 50.1 |  |  |  |
| Cc1nn2c(C(C)C)c(C(=O)N[C@H]3CCc4ccccc43)cnc2c1-c1cnn(CC(F)(F)F)c1 [Example 310] |  |  | 3.81 | 8 |  |
| Cc1nn2c(C(F)F)c(C(=O)N[C@H]3CCc4ccccc43)cnc2c1-c1cccc(C(F)(F)F)c1 [Example 311, (S)-7-(Difluoromethyl)-N-(2,3-dihydro-1H-inden-1-yl)-2-methyl-3-(3-(trifluoromethyl)-phenyl)-pyrazolo[1,5-a]pyrimidine-6-carboxamide] | 4.36 | 200 |  |  |  |
| Cc1nn2c(C(C)C)c(C(=O)N[C@H]3CCc4ccccc43)cnc2c1-c1cccc(N2CCOCC2)c1 [Example 316] | 4.26 | 158 |  |  |  |
| Cc1nn2c(C(C)C)c(C(=O)N[C@H]3CCc4ccccc43)cnc2c1-c1ccncc1 [Example 318] | 1.84 | 1000 |  |  |  |
| CCOc1cccc(-c2c(C)nn3c(C(C)C)c(C(=O)N[C@H]4CCc5ccccc54)cnc23)c1 [Example 322] | 4.94 | 12.6 |  |  |  |
| Cc1nn2c(C(C)C)c(C(=O)N[C@H]3CCc4ccccc43)cnc2c1-c1ccc(N2CCOCC2)cc1 [Example 326] | 4.2 | 1260 |  |  |  |
| Cc1nn2c(C(C)C)c(C(=O)N[C@H]3CCc4ccccc43)cnc2c1-c1cccc(-n2cccn2)c1 [Example 328] | 4.4 | 39.8 |  |  |  |
| COc1ccc(-c2c(C)nn3c(C(C)C)c(C(=O)N[C@H]4CCc5ccccc54)cnc23)cc1 [Example 333] | 4.43 | 100 |  |  |  |
| Cc1nn2c(C(C)C)c(C(=O)N[C@H]3CCc4ccccc43)cnc2c1-c1ccc(OC(F)F)cc1 [Example 335] | 4.66 | 126 |  |  |  |
| CCOc1ccc(-c2c(C)nn3c(C(C)C)c(C(=O)N[C@H]4CCc5ccccc54)cnc23)cc1 [Example 339] | 4.87 | 2510 |  |  |  |
| Cc1nn2c(C(C)C)c(C(=O)N[C@H]3CCCc4ccccc43)cnc2c1-c1cnn(CC(F)(F)F)c1 [Example 359] |  |  | 4.11 | 7.9 |  |
| Cc1nn2c(C(C)C)c(C(=O)N[C@H]3CCc4ccccc43)cnc2c1-c1cccc(C[S+](C)[O-])c1 (some centres unmarked) [Example 380] |  |  | 3.05 | 6 |  |
| Cc1nn2c(C(C)C)c(C(=O)N[C@H]3CCOc4ccccc43)cnc2c1-c1cnn(CC(F)(F)F)c1 [Example 401] |  |  |  | 7.9 | 3.57 |
| Cc1nn2c(C3CC3)c(C(=O)N[C@H]3CCc4ccccc43)cnc2c1-c1cnn(CC(F)(F)F)c1 [Example 421] |  |  |  | 8.1 | 3.17 |
| Cc1nn2c(C3CC3)c(C(=O)N[C@H]3CCOc4ccccc43)cnc2c1-c1cnn(CC(F)(F)F)c1 [Example 468] |  |  |  | 7.8 | 2.95 |
| Cc1nn2c(CN(C)C)c(C(=O)N[C@H]3CCc4ccccc43)cnc2c1-c1cccc(Cl)c1Cl [Example 522] |  |  |  | 7.8 | 2.08 |
| Cc1nn2c(CN(C)C)c(C(=O)N[C@H]3CCOc4ccccc43)cnc2c1-c1cccc(Cl)c1Cl [Example 523] |  |  |  | 8.0 | 2.17 |
| CSCCN(C)c1c(C(=O)N[C@H]2CCOc3ccccc32)cnc2c(-c3cccc(Cl)c3Cl)c(C)nn12 [Example 529] |  |  |  | 8.1 | 4.69 |
